In the NIST ThermoML archive (doi:10.1016/j.fluid.2014.11.020):
± gives the expanded uncertainty stated by the source.

Assay: activity coefficient (dimensionless); of the first substance listed, at infinite dilution; xn = mol fraction of the nth substance listed
Settings: Liquid, Chromatography, x1 = 0

Compound | activity coefficient (323.15 K) | activity coefficient (333.15 K) | activity coefficient (343.15 K)
c1ccsc1 [thiophene] + CCCCCCCCn1cc[n+](COCCC)c1C.O=S(=O)([N-]S(=O)(=O)C(F)(F)F)C(F)(F)F | 0.57 ± 0.04 | 0.52 ± 0.04 | 0.56 ± 0.04
c1ccsc1 [thiophene] + CCCCCCCCn1cc[n+](COCCCOC[n+]2ccn(CCCCCCCC)c2C)c1C.N#C[N-]C#N.N#C[N-]C#N | 0.49 ± 0.04 | 0.49 ± 0.04 | 0.51 ± 0.04
c1ccsc1 [thiophene] + CCCCCCCCn1cc[n+](COCCCOC[n+]2ccn(CCCCCCCC)c2C)c1C.O=S(=O)([N-]S(=O)(=O)C(F)(F)F)C(F)(F)F.O=S(=O)([N-]S(=O)(=O)C(F)(F)F)C(F)(F)F | 0.38 ± 0.03 | 0.37 ± 0.03 | 0.38 ± 0.03
c1ccsc1 [thiophene] + CCCOC[n+]1ccc(N(C)C)cc1.O=S(=O)([N-]S(=O)(=O)C(F)(F)F)C(F)(F)F | 0.65 ± 0.04 | 0.69 ± 0.05 | 0.69 ± 0.05
c1ccsc1 [thiophene] + CCCOC[n+]1ccn(C)c1.F[B-](F)(F)F | 2.26 ± 0.15 | 2.27 ± 0.15 | 2.27 ± 0.15
c1ccsc1 [thiophene] + CCCOC[n+]1ccn(C)c1.N#C[N-]C#N | 1.41 ± 0.09 | 1.45 ± 0.1 | 1.5 ± 0.1
c1ccsc1 [thiophene] + CCCOC[n+]1ccn(C)c1.O=S(=O)([N-]S(=O)(=O)C(F)(F)F)C(F)(F)F | 1.06 ± 0.07 | 1.05 ± 0.07 | 1.04 ± 0.07
c1ccsc1 [thiophene] + CCCOC[n+]1ccn(Cc2ccccc2)c1.F[B-](F)(F)F | 1.33 ± 0.09 | 1.27 ± 0.08 | 1.25 ± 0.08
c1ccsc1 [thiophene] + CCCOC[n+]1ccn(Cc2ccccc2)c1.N#C[N-]C#N | 0.98 ± 0.06 | 1.02 ± 0.06 | 1.04 ± 0.07
c1ccsc1 [thiophene] + CCCOC[n+]1ccn(Cc2ccccc2)c1.O=S(=O)([N-]S(=O)(=O)C(F)(F)F)C(F)(F)F | 0.7 ± 0.05 | 0.62 ± 0.04 | 0.62 ± 0.04
c1ccsc1 [thiophene] + CN(C)c1cc[n+](COCCCOC[n+]2ccc(N(C)C)cc2)cc1.O=S(=O)([N-]S(=O)(=O)C(F)(F)F)C(F)(F)F.O=S(=O)([N-]S(=O)(=O)C(F)(F)F)C(F)(F)F | 0.55 ± 0.04 | 0.56 ± 0.04 | 0.57 ± 0.04
c1ccsc1 [thiophene] + Cn1cc[n+](COCCCOC[n+]2ccn(C)c2)c1.N#C[N-]C#N.N#C[N-]C#N | 1.58 ± 0.1 | 1.63 ± 0.11 | 1.68 ± 0.11
c1ccsc1 [thiophene] + Cn1cc[n+](COCCCOC[n+]2ccn(C)c2)c1.O=S(=O)([N-]S(=O)(=O)C(F)(F)F)C(F)(F)F.O=S(=O)([N-]S(=O)(=O)C(F)(F)F)C(F)(F)F | 0.77 ± 0.05 | 0.78 ± 0.05 | 0.78 ± 0.05
c1ccsc1 [thiophene] + N#C[N-]C#N.N#C[N-]C#N.c1ccc(Cn2cc[n+](COCCCOC[n+]3ccn(Cc4ccccc4)c3)c2)cc1 | 1.7 ± 0.11 | 1.64 ± 0.11 | 1.67 ± 0.11
Cc1ccccc1 [toluene] + CCCCCCCCn1cc[n+](COCCC)c1C.N#C[N-]C#N | 1.43 ± 0.09 | 1.22 ± 0.08 | 1.15 ± 0.07
Cc1ccccc1 [toluene] + CCCCCCCCn1cc[n+](COCCC)c1C.O=S(=O)([N-]S(=O)(=O)C(F)(F)F)C(F)(F)F | 0.76 ± 0.05 | 0.76 ± 0.05 | 0.77 ± 0.05
Cc1ccccc1 [toluene] + CCCCCCCCn1cc[n+](COCCCOC[n+]2ccn(CCCCCCCC)c2C)c1C.N#C[N-]C#N.N#C[N-]C#N | 0.94 ± 0.06 | 0.95 ± 0.06 | 0.97 ± 0.06
Cc1ccccc1 [toluene] + CCCCCCCCn1cc[n+](COCCCOC[n+]2ccn(CCCCCCCC)c2C)c1C.O=S(=O)([N-]S(=O)(=O)C(F)(F)F)C(F)(F)F.O=S(=O)([N-]S(=O)(=O)C(F)(F)F)C(F)(F)F | 0.54 ± 0.04 | 0.53 ± 0.04 | 0.54 ± 0.04
Cc1ccccc1 [toluene] + CCCOC[n+]1ccc(N(C)C)cc1.O=S(=O)([N-]S(=O)(=O)C(F)(F)F)C(F)(F)F | 0.99 ± 0.06 | 1.04 ± 0.07 | 1.05 ± 0.07
Cc1ccccc1 [toluene] + CCCOC[n+]1ccn(C)c1.F[B-](F)(F)F | 6.06 ± 0.41 | 6.02 ± 0.41 | 5.98 ± 0.41
Cc1ccccc1 [toluene] + CCCOC[n+]1ccn(C)c1.N#C[N-]C#N | 3.6 ± 0.25 | 3.65 ± 0.25 | 3.77 ± 0.26
Cc1ccccc1 [toluene] + CCCOC[n+]1ccn(C)c1.O=S(=O)([N-]S(=O)(=O)C(F)(F)F)C(F)(F)F | 1.7 ± 0.11 | 1.68 ± 0.11 | 1.69 ± 0.11

Compound | activity coefficient (323.15 K) | activity coefficient (333.15 K) | activity coefficient (343.15 K)
Cc1ccccc1 [toluene] + CCCOC[n+]1ccn(Cc2ccccc2)c1.F[B-](F)(F)F | 3.12 ± 0.21 | 3.03 ± 0.21 | 3.04 ± 0.21
Cc1ccccc1 [toluene] + CCCOC[n+]1ccn(Cc2ccccc2)c1.N#C[N-]C#N | 2.29 ± 0.16 | 2.26 ± 0.15 | 2.25 ± 0.15
Cc1ccccc1 [toluene] + CCCOC[n+]1ccn(Cc2ccccc2)c1.O=S(=O)([N-]S(=O)(=O)C(F)(F)F)C(F)(F)F | 1.09 ± 0.07 | 0.97 ± 0.06 | 0.96 ± 0.06
Cc1ccccc1 [toluene] + CN(C)c1cc[n+](COCCCOC[n+]2ccc(N(C)C)cc2)cc1.O=S(=O)([N-]S(=O)(=O)C(F)(F)F)C(F)(F)F.O=S(=O)([N-]S(=O)(=O)C(F)(F)F)C(F)(F)F | 0.92 ± 0.06 | 0.94 ± 0.06 | 0.96 ± 0.06
Cc1ccccc1 [toluene] + Cn1cc[n+](COCCCOC[n+]2ccn(C)c2)c1.N#C[N-]C#N.N#C[N-]C#N | 5.63 ± 0.38 | 5.58 ± 0.38 | 5.49 ± 0.37
Cc1ccccc1 [toluene] + Cn1cc[n+](COCCCOC[n+]2ccn(C)c2)c1.O=S(=O)([N-]S(=O)(=O)C(F)(F)F)C(F)(F)F.O=S(=O)([N-]S(=O)(=O)C(F)(F)F)C(F)(F)F | 1.46 ± 0.1 | 1.48 ± 0.1 | 1.46 ± 0.1
Cc1ccccc1 [toluene] + N#C[N-]C#N.N#C[N-]C#N.c1ccc(Cn2cc[n+](COCCCOC[n+]3ccn(Cc4ccccc4)c3)c2)cc1 | 5.08 ± 0.35 | 4.97 ± 0.34 | 4.8 ± 0.33
ClC(Cl)Cl [trichloromethane] + CCCCCCCCn1cc[n+](COCCC)c1C.N#C[N-]C#N | 0.27 ± 0.03 | 0.3 ± 0.03 | 0.33 ± 0.03
ClC(Cl)Cl [trichloromethane] + CCCCCCCCn1cc[n+](COCCC)c1C.O=S(=O)([N-]S(=O)(=O)C(F)(F)F)C(F)(F)F | 0.51 ± 0.04 | 0.49 ± 0.04 | 0.53 ± 0.04
ClC(Cl)Cl [trichloromethane] + CCCCCCCCn1cc[n+](COCCCOC[n+]2ccn(CCCCCCCC)c2C)c1C.N#C[N-]C#N.N#C[N-]C#N | 0.24 ± 0.03 | 0.26 ± 0.03 | 0.27 ± 0.03
ClC(Cl)Cl [trichloromethane] + CCCCCCCCn1cc[n+](COCCCOC[n+]2ccn(CCCCCCCC)c2C)c1C.O=S(=O)([N-]S(=O)(=O)C(F)(F)F)C(F)(F)F.O=S(=O)([N-]S(=O)(=O)C(F)(F)F)C(F)(F)F | 0.39 ± 0.03 | 0.38 ± 0.03 | 0.39 ± 0.03
ClC(Cl)Cl [trichloromethane] + CCCOC[n+]1ccc(N(C)C)cc1.O=S(=O)([N-]S(=O)(=O)C(F)(F)F)C(F)(F)F | 0.71 ± 0.05 | 0.75 ± 0.05 | 0.79 ± 0.05
ClC(Cl)Cl [trichloromethane] + CCCOC[n+]1ccn(C)c1.F[B-](F)(F)F | 1.74 ± 0.12 | 1.8 ± 0.12 | 1.87 ± 0.13
ClC(Cl)Cl [trichloromethane] + CCCOC[n+]1ccn(C)c1.N#C[N-]C#N | 0.8 ± 0.05 | 0.85 ± 0.05 | 0.92 ± 0.06
ClC(Cl)Cl [trichloromethane] + CCCOC[n+]1ccn(C)c1.O=S(=O)([N-]S(=O)(=O)C(F)(F)F)C(F)(F)F | 1.03 ± 0.06 | 1.06 ± 0.07 | 1.06 ± 0.07
ClC(Cl)Cl [trichloromethane] + CCCOC[n+]1ccn(Cc2ccccc2)c1.F[B-](F)(F)F | 1.16 ± 0.07 | 1.15 ± 0.07 | 1.2 ± 0.08
ClC(Cl)Cl [trichloromethane] + CCCOC[n+]1ccn(Cc2ccccc2)c1.N#C[N-]C#N | 0.62 ± 0.04 | 0.65 ± 0.04 | 0.69 ± 0.05
ClC(Cl)Cl [trichloromethane] + CCCOC[n+]1ccn(Cc2ccccc2)c1.O=S(=O)([N-]S(=O)(=O)C(F)(F)F)C(F)(F)F | 0.73 ± 0.05 | 0.65 ± 0.04 | 0.66 ± 0.05
ClC(Cl)Cl [trichloromethane] + CN(C)c1cc[n+](COCCCOC[n+]2ccc(N(C)C)cc2)cc1.O=S(=O)([N-]S(=O)(=O)C(F)(F)F)C(F)(F)F.O=S(=O)([N-]S(=O)(=O)C(F)(F)F)C(F)(F)F | 0.67 ± 0.05 | 0.69 ± 0.05 | 0.7 ± 0.05
ClC(Cl)Cl [trichloromethane] + Cn1cc[n+](COCCCOC[n+]2ccn(C)c2)c1.N#C[N-]C#N.N#C[N-]C#N | 1.02 ± 0.06 | 1.08 ± 0.07 | 1.14 ± 0.07
ClC(Cl)Cl [trichloromethane] + Cn1cc[n+](COCCCOC[n+]2ccn(C)c2)c1.O=S(=O)([N-]S(=O)(=O)C(F)(F)F)C(F)(F)F.O=S(=O)([N-]S(=O)(=O)C(F)(F)F)C(F)(F)F | 0.87 ± 0.06 | 0.89 ± 0.06 | 0.71 ± 0.05
ClC(Cl)Cl [trichloromethane] + N#C[N-]C#N.N#C[N-]C#N.c1ccc(Cn2cc[n+](COCCCOC[n+]3ccn(Cc4ccccc4)c3)c2)cc1 | 1.22 ± 0.08 | 1.2 ± 0.08 | 1.33 ± 0.09
